From US20120157547A1, “COMPOSITIONS AND APPLICATIONS OF CAROTENOIDS OF IMPROVED ABSORPTION AND BIOAVAILABILITY” (priority 2010, published 2012)
Where “and” joins values, the source holds several entries; their conditions need not be identical. Equal entries are not always repeated.

Assays:
[1] = Serum Lutein concentration by HPLC during 24 weeks of daily capsule ingestion (bioavailability evaluation); assay type: in vivo
Protocol: The evaluation was carried out over a period of 24 weeks with three (3) groups of subjects that ingested daily one gelatin capsule containing the following: • The first group ingested a capsule containing a dispersion of 20 mg of Micro-Mic™ in vegetable oil. • The second group ingested a gelatin capsule containing a dispersion of 20 mg of commercial crystalline Lutein dispersed in vegetable oil. • The third group ingested a gelatin capsule containing only vegetable oil (placebo). The three gelatin capsules were all the same color (dark brown). Blood samples were collected weekly and the serum analyzed for Lutein by HPLC, and the concentration was reported as (ng/ul) of Lutein The results obtained are shown for Baseline date, week 6th, week 12^t1, week 18th, and week 24th. The ratio between the concentrations at each week was divided by the Baseline concentration. The average of those ratios is reported at the base of each column.

[2] = Rate of increase in MPOD (Macular Pigment Optical Density) during 24 weeks of daily capsule ingestion; assay type: in vivo; details: 20 mg daily capsule
Protocol: The evaluation was carried out over a period of 24 weeks with three (3) groups of subjects that ingested daily one gelatin capsule containing the following: • The first group ingested a capsule containing a dispersion of 20 mg of Micro-Mic™ in vegetable oil. • The second group ingested a gelatin capsule containing a dispersion of 20 mg of commercial crystalline Lutein dispersed in vegetable oil. • The third group ingested a gelatin capsule containing only vegetable oil (placebo). The three gelatin capsules were all the same color (dark brown).
Rate of Increase in MPOD in Absorbance Units Per Week
The serum results are a better indicator of bioavailability than the macular pigment results. It is well established that some subjects are serum responders, but macular pigment non-responders. However in this evaluation the Micro-Mic™ group mean MPOD (Macular Pigment Optical Density) exceeds that of the crystalline Lutein subjects by approximately 14%.

Compound: CC1=C[C@H](O)CC(C)(C)[C@H]1/C=C/C(C)=C/C=C/C(C)=C/C=C/C=C(C)/C=C/C=C(C)/C=C/C1=C(C)C[C@@H](O)CC1(C)C [Lutein]
- Week 6/Baseline, group average ([1]; average of the subjects' ratios, week 6): 4.964
- Week 12/Baseline, group average ([1]; average of the subjects' ratios, week 12): 4.492
- Week 18/Baseline, group average ([1]; average of the subjects' ratios, week 18): 4.345
- Week 24/Baseline, group average ([1]; average of the subjects' ratios, week 24): 3.931
- Week 6-24/Baseline, group average ([1]; average of the subjects' ratios, weeks 6-24): 4.433
- concentration at 6 weeks ([1]; human, serum, oral, 20 mg, serum, group average, week 6, 20 mg daily capsule in vegetable oil, read-out: Week 6 Lutein Conc. B, group average): 632 ng/mL
- concentration at 12 weeks ([1]; human, serum, oral, 20 mg, serum, group average, week 12, 20 mg daily capsule in vegetable oil, read-out: Week 12 Lutein Conc. C, group average): 577 ng/mL
- concentration at 18 weeks ([1]; human, serum, oral, 20 mg, serum, group average, week 18, 20 mg daily capsule in vegetable oil, read-out: Week 18 Lutein Conc. D, group average): 545 ng/mL
- concentration at 24 weeks ([1]; human, serum, oral, 20 mg, serum, group average, week 24, 20 mg daily capsule in vegetable oil, read-out: Week 24 Lutein Conc. E, group average): 458 ng/mL
- Week 6/Baseline ([1]; ratio of serum Lutein conc., individual subject, week 6): 3.934 and 4.235 and 3.335 and 4.201 and 5.425 and 2.914 and 8.047 and 8.611 and 2.624 and 6.314
- Week 12/Baseline ([1]; ratio of serum Lutein conc., individual subject, week 12): 4.398 and 3.871 and 2.494 and 5.926 and 5.242 and 4.491 and 3.439 and 5.491 and 3.867 and 5.704
- Week 18/Baseline ([1]; ratio of serum Lutein conc., individual subject, week 18): 3.608 and 2.273 and 2.296 and 4.321 and 11.494 and 2.395 and 3.171 and 7.268 and 2.283 and 4.335
- Week 24/Baseline ([1]; ratio of serum Lutein conc., individual subject, week 24): 2.721 and 1.327 and 1.910 and 8.589 and 4.965 and 2.051 and 2.296 and 5.931 and 4.958 and 4.563
- Week 6-24/Baseline ([1]; ratio of serum Lutein conc., individual subject, weeks 6-24): 3.665 and 2.927 and 2.509 and 5.759 and 6.782 and 2.963 and 4.238 and 6.825 and 3.433 and 5.229
- Baseline Lutein Conc. A, group average ([1]; serum, group average, baseline, group later given 20 mg daily capsule): 0.128 ng/µL
- Baseline Lutein Conc. A ([1]; serum, individual subject, baseline, group later given 20 mg daily capsule): 0.268 ng/ul and 0.108 ng/ul (3×) and 0.112 ng/ul and 0.063 ng/ul and 0.151 ng/ul and 0.119 ng/ul and 0.082 ng/ul and 0.164 ng/ul
- Week 6 Lutein Conc. B ([1]; serum, individual subject, week 6, 20 mg daily capsule in vegetable oil): 1.054 ng/µL and 0.457 ng/µL and 0.372 ng/µL and 0.265 ng/µL and 0.584 ng/µL and 0.439 ng/µL and 0.867 ng/µL and 1.028 ng/µL and 0.215 ng/µL and 1.035 ng/µL
- Week 12 Lutein Conc. C ([1]; serum, individual subject, week 12, 20 mg daily capsule in vegetable oil): 1.179 ng/µL and 0.418 ng/µL and 0.278 ng/µL and 0.373 ng/µL and 0.564 ng/µL and 0.677 ng/µL and 0.370 ng/µL and 0.655 ng/µL and 0.317 ng/µL and 0.935 ng/µL
- Week 18 Lutein Conc. D ([1]; serum, individual subject, week 18, 20 mg daily capsule in vegetable oil): 0.967 ng/µL and 0.246 ng/µL and 0.256 ng/µL and 0.272 ng/µL and 1.238 ng/µL and 0.361 ng/µL and 0.341 ng/µL and 0.867 ng/µL and 0.187 ng/µL and 0.711 ng/µL
- Week 24 Lutein Conc. E ([1]; serum, individual subject, week 24, 20 mg daily capsule in vegetable oil): 0.729 ng/µL and 0.143 ng/µL and 0.213 ng/µL and 0.541 ng/µL and 0.535 ng/µL and 0.309 ng/µL and 0.247 ng/µL and 0.708 ng/µL and 0.407 ng/µL and 0.748 ng/µL
- Rate of Increase in MPOD, Max ([2]; group maximum): 5.100E−03 Absorbance Units Per Week
- Rate of Increase in MPOD, Mean ([2]; group mean): 1.690E−03 Absorbance Units Per Week
- Rate of Increase in MPOD, Median ([2]; group median): 1.550E−03 Absorbance Units Per Week
- Rate of Increase in MPOD, Min ([2]; group minimum): −8.000E−04 Absorbance Units Per Week
